Reference: patent publication US3954775A, “Thiazolo(5,4-f)quinoline-8-carboxylic acid derivatives” (Sumitomo Chemical Company, Limited, priority 1973, dated 1976)
In brackets after ≈: the same amount, converted by molar mass. Like-named read-outs stand apart in the source and are kept apart here.

Columns and labels:
[1] = system: gram-positive bacteria such as Staphylococcus, Streptococcus, Diplococcus; assay: in vitro antibacterial activity on gram-positive bacteria, tube dilution method; assay type: cell-based; conditions: result in words
From the text: (§1) The in vitro antibacterial activities were compared with 6-ethyl-2,3,6,9-tetrahydro-3-methyl-2,9-dioxothiazolo[5,4-f]quinoline-8-carboxylic acid (hereinafter Compound (D)) and nalidixic acid (hereinafter Compound (E)) using the tube dilution method.
The antibacterial spectrum of 3-benzyl-6-benzyloxy-2,3,6,9-tetrahydro-2,9-dioxothiazolo[5,4-f]quinoline- 8-carboxylic acid (hereinafter Compoud (B)) is different from the other compounds.

Sarcina lutea PCI 1001 = assay: in vitro antibacterial activity, tube dilution method; assay type: cell-based; conditions: Micrococcus luteus, PCI1001, read-out: In vitro Antibacterial Activities
From the text: as §1

[2] = system: Streptococcus hemolyticus A-1; assay: as above; assay type: cell-based; conditions: Streptococcus pyogenes, A1, read-out: In vitro Antibacterial Activities
From the text: as §1

Proteus vulgaris HX-19 = assay: as above; assay type: cell-based
From the text: as §1

[3] = system: Staphylococcus albus 1200 A; assay: as above; assay type: cell-based; conditions: read-out: In vitro Antibacterial Activities
From the text: as §1

Escherichia coli NIHJ = assay: as above; assay type: cell-based; conditions: read-out: In vitro Antibacterial Activities
From the text: as §1

[4] = system: Pseudomonas aeruginosa 104; assay: as above; assay type: cell-based
From the text: as §1

[5] = system: Proteus mirabilis GN-2425; assay: as above; assay type: cell-based
From the text: as §1

[6] = system: Klebsiella pneumoniae PCI 602; assay: as above; assay type: cell-based
From the text: as §1

[7] = system: Bacillus subtilis PCI 219; assay: as above; assay type: cell-based; conditions: PCI219, read-out: In vitro Antibacterial Activities
From the text: as §1

[8] = system: Diplococcus pneumoniae Newfeld; assay: as above; assay type: cell-based; conditions: Streptococcus pneumoniae, read-out: In vitro Antibacterial Activities
From the text: as §1

[9] = system: Staphylococcus aureus 209-P; assay: as above; assay type: cell-based; conditions: read-out: In vitro Antibacterial Activities
From the text: as §1

gram-negative bacteria = assay: in vitro antibacterial activity on gram-negative bacteria, tube dilution method; assay type: cell-based; conditions: for antibacterial activities on gram-negative bacteria: tube dilution method, result in words
From the text: as §1

[10] = preliminary toxicity in rats, 9 days oral; assay type: in vivo, female rats of Spraugue-Dewlty-SLC strain; conditions: 1000 to 2000 mg/kg/day orally for 9 days
Experimental: To 6-week old female rats of Spraugue-Dewlty-SLC strain, 1000 to 2000 mg/kg/day of Compound A were administered orally for 9 days.

[11] = urinary excretion in fasting rats after a single oral dose; assay type: in vivo; conditions: single oral dose of 50 mg/kg
Experimental: Urinary excretions in fasting rats after a single oral dose of 50 mg/kg were also examined.
Compound (A) was excreted in the urine about 7 times faster than Compound (D). Recovery rates of Compound (A) in the urine were 2.0% after 24 hours.

[12] = concentrations in serum of mice after a single oral dose; assay type: in vivo; conditions: single oral dose of 50 mg/kg
Experimental: […] concentrations in serum of Compound (A) and Compound (D) were determined in the mice after a single oral dose of 50 mg/kg. […] The peak value for Compound (A) was about 12 times higher than that of Compound (D).

Escherichia coli No. 37 = assay: in vivo protection of infected mice, oral; conditions: intraperitoneal infection, oral 1 hour and 6 hours after infection, E. coli No. 37
Experimental: (§2) The mice were inoculated intraperitoneally with the test organisms in 5% gastric mucin. The test compounds were suspended in 0.5% carboxymethylcellulose and administered orally 1 hour and 6 hours after infection.

Escherichia coli No. 34 = assay: in vivo protection of infected mice, oral; conditions: for ED50: Escherichia coli, intraperitoneal infection, oral 1 hour and 6 hours after infection, E. coli No. 34
Experimental: as §2

[13] = system: Proteus mirabilis GN-2425; assay: in vivo protection of infected mice, oral; conditions: for ED50: Proteus mirabilis, GN2425, intraperitoneal infection, oral 1 hour and 6 hours after infection, P. mirabilis GN-2425
Experimental: as §2

organism tested = assay: in vivo protection of infected mice, organisms tested overall; conditions: oral, result in words
Experimental: as §2

[14] = prior art statement in words; cited from earlier work
[15] = prior art statement in words; cited from earlier work; remark: listed apart in the source
[16] = system: Trichophyton rubrum and Aspergillus niger; assay: antifungal activity on Sabourand agar, fungi tested overall; assay type: cell-based
Experimental: (§3) The activities of ethyl 2,9-dichlorothiazolo[5,4-f]quinoline-8-carboxylate-6-oxide (Compound (F)) on Trichophyton rubrum and Aspergillus niger were tested on Sabourand agar. […] The minimum inhibitory concentrations were 0.78 mcg/ml for Trichophyton rubrum and 25 mcg/ml for Aspergillus niger.

Trichophyton rubrum = assay: antifungal activity on Sabourand agar; assay type: cell-based; conditions: read-out: minimum inhibitory concentration
Experimental: as §3

Aspergillus niger = assay: antifungal activity on Sabourand agar; assay type: cell-based; conditions: read-out: minimum inhibitory concentration
Experimental: as §3

[17] = HX19, Proteus vulgaris HX-19, tube dilution method, read-out: In vitro Antibacterial Activities
[18] = Escherichia coli NIHJ, tube dilution method
[19] = Pseudomonas aeruginosa 104, tube dilution method, read-out: In vitro Antibacterial Activities
[20] = GN2425, Proteus mirabilis GN-2425, tube dilution method, read-out: In vitro Antibacterial Activities
[21] = PCI602, Klebsiella pneumoniae PCI 602, tube dilution method, read-out: In vitro Antibacterial Activities
[22] = Staphylococcus aureus 209-P, tube dilution method

Structure (SMILES): O=C(O)c1cn(OCc2ccccc2)c2ccc3c(sc(=O)n3Cc3ccccc3)c2c1=O [B, 3-benzyl-6-benzyloxy-2,3,6,9-tetrahydro-2,9-dioxothiazolo[5,4-f]quinoline-8-carboxylic acid]
- inhibitory activity on gram-positive bacteria [1]: exhibited inhibitory activity on gram-positive bacteria
- MIC (Sarcina lutea PCI 1001): 1.56 µg/mL (≈ 3.4 µM)
- MIC [2]: 1.56 µg/mL (≈ 3.4 µM)
- MIC (Proteus vulgaris HX-19; [17]): > 200 µg/mL
- MIC [3]: 3.13 µg/mL (≈ 6.83 µM)
- MIC (Escherichia coli NIHJ; [18]): > 200 µg/mL
- MIC [4, 19]: > 200 µg/mL
- MIC [5, 20]: > 200 µg/mL
- MIC [6, 21]: > 200 µg/mL
- MIC [7]: 0.78 µg/mL (≈ 1.7 µM)
- MIC [8]: 1.56 µg/mL (≈ 3.4 µM)
- MIC [9, 22]: 1.56 µg/mL (≈ 3.4 µM)

Structure (SMILES): C=CCOn1cc(C(=O)O)c(=O)c2c3sc(=O)n(CC=C)c3ccc21 [C, 2,3,6,9-tetrahydro-3-allyl-6-allyloxy-2,9-dioxothiazolo[5,4-f]quinoline-8-carboxylic acid]
- antibacterial activities on gram-negative bacteria (gram-negative bacteria): showed antibacterial activities on gram-negative bacteria
- MIC (Proteus vulgaris HX-19; [17]): 3.13 µg/mL (≈ 8.73 µM)
- MIC (Escherichia coli NIHJ; [18]): 100 µg/mL (≈ 279 µM)
- MIC [4, 19]: > 200 µg/mL
- MIC [5, 20]: > 200 µg/mL
- MIC [6, 21]: 200 µg/mL (≈ 558 µM)
- MIC [9, 22]: 50 µg/mL (≈ 140 µM)

Structure (SMILES): COn1cc(C(=O)O)c(=O)c2c3sc(=O)n(C)c3ccc21 [Compound A, 2,3,6,9-Tetrahydro-6-methoxy-3-methyl-2,9-dioxothiazolo[5,4-f]quinoline-8-carboxylic acid]
- macroscopic examinations [10]: no abnormal findings were observed
- symptoms [10]: No significant symptoms were observed
- urinalysis (pH, protein, glucose, ketone bodies and occult blood) [10]: no abnormality was found
- body weight ([10]; at all doses): did not decrease
- body weight-gain ([10]; at all doses): slightly decreased
- dose excreted at 24 h ([11]; rat, urine, after 24 hours, read-out: Recovery rates in the urine): 2%
- excretion in the urine, times faster than Compound (D) [11]: about 7 times
- urinary concentration compared with Compound (D) ([11]; in words): superior to Compound (D)
- urinary recovery rate compared with Compound (D) ([11]; in words): superior to Compound (D)
- activity in vitro compared with Compound (D) (gram-negative bacteria; comparison in words): as active as Compound (D)
- activity in vitro compared with Compound (E) (gram-negative bacteria; comparison with nalidixic acid in words): more active than Compound (E)
- antibacterial activities on gram-negative bacteria (gram-negative bacteria): showed antibacterial activities on gram-negative bacteria
- time at which serum levels reached a maximum [12]: within an hour
- peak serum value relative to Compound (D) ([12]; times higher than Compound (D)): about 12 times
- MIC (Proteus vulgaris HX-19; [17]): 0.1 µg/mL (≈ 0.326 µM)
- MIC (Escherichia coli NIHJ; [18]): 0.2 µg/mL (≈ 0.653 µM)
- MIC [4, 19]: 25 µg/mL (≈ 81.6 µM)
- MIC [5, 20]: 0.39 µg/mL (≈ 1.27 µM)
- MIC [6, 21]: 0.2 µg/mL (≈ 0.653 µM)
- MIC [7]: 0.5 µg/mL (≈ 1.63 µM)
- MIC [9, 22]: 12.5 µg/mL (≈ 40.8 µM)
- ED50 (Escherichia coli No. 37): > 20 mg/kg
- ED50 (Escherichia coli No. 34): 50 mg/kg
- effectiveness in protecting mice against E. Coli No. 34, compared with Compound (D) (Escherichia coli No. 34; oral, comparison in words): more effective than Compound (D)
- ED50 [13]: 14 mg/kg
- effectiveness in protecting mice against P. Mirabilis GN 2425, compared with Compound (D) ([13]; oral, comparison in words): more effective than Compound (D)

Structure (SMILES): CCn1cc(C(=O)O)c(=O)c2c3sc(=O)n(C)c3ccc21 [Compound D, 6-ethyl-2,3,6,9-tetrahydro-3-methyl-2,9-dioxothiazolo[5,4-f]quinoline-8-carboxylic acid, reference compound]
- activities on the organism tested in vivo (organism tested): did not show activities on the organism tested
- antibacterial activity in vitro [14]: noticeable antibacterial activity in vitro
- MIC (Proteus vulgaris HX-19; [17]): 0.1 µg/mL (≈ 0.329 µM)
- MIC (Escherichia coli NIHJ; [18]): 0.2 µg/mL (≈ 0.657 µM)
- MIC [4, 19]: > 200 µg/mL
- MIC [5, 20]: 0.78 µg/mL (≈ 2.56 µM)
- MIC [6, 21]: 0.2 µg/mL (≈ 0.657 µM)
- MIC [7]: 0.25 µg/mL (≈ 0.821 µM)
- MIC [9, 22]: 12.5 µg/mL (≈ 41.1 µM)
- antibacterial activity in vivo [15]: does not possess a sufficient antibacterial activity in vivo
- ED50 (Escherichia coli No. 37): > 40 mg/kg
- ED50 (Escherichia coli No. 34): > 100 mg/kg
- ED50 [13]: > 40 mg/kg

Structure (SMILES): CCn1cc(C(=O)O)c(=O)c2ccc(C)nc21 [E, nalidixic acid, reference compound]
- MIC (Proteus vulgaris HX-19; Proteus vulgaris, HX19, read-out: In vitro Antibacterial Activities): 0.78 µg/mL (≈ 3.36 µM)
- MIC (Escherichia coli NIHJ; Escherichia coli): 3.13 µg/mL (≈ 13.5 µM)
- MIC ([4]; Pseudomonas aeruginosa, 104, read-out: In vitro Antibacterial Activities): > 200 µg/mL
- MIC ([5]; Proteus mirabilis, GN2425, read-out: In vitro Antibacterial Activities): 6.25 µg/mL (≈ 26.9 µM)
- MIC ([6]; Klebsiella pneumoniae, PCI602, read-out: In vitro Antibacterial Activities): 3.13 µg/mL (≈ 13.5 µM)
- MIC ([9]; Staphylococcus aureus, 209P): 100 µg/mL (≈ 431 µM)

Structure (SMILES): CCOC(=O)c1c[n+]([O-])c2ccc3nc(Cl)sc3c2c1Cl [F, ethyl 2,9-dichlorothiazolo[5,4-f]quinoline-8-carboxylate-6-oxide]
- inhibitory activity on the fungi tested ([16]; Sabourand agar, result in words): exhibited inhibitory activity on the fungi tested
- antifungal activity in vitro relative to griseofulvin ([16]; in vitro, comparison in words): twice as active than griseofulvin
- MIC (Trichophyton rubrum): 0.78 µg/mL (≈ 2.27 µM)
- MIC (Aspergillus niger): 25 µg/mL (≈ 72.8 µM)
